Results as given in ChEMBL document CHEMBL1201862, “PubChem BioAssay data set” (2004).
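Interpolation was linear, between the two tested concentrations surrounding the appropriate level; five concentrations were tested over 48 hours in 96-well plates. GI50 marks 50% less growth.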 Activity calls are given as the source filed them. No stated cut-off is given here; in the data, active = GI50 up to about 1.1 µM and inactive = higher.

Key:
Assay in all cases: NCI-60 cell line screen, 48 h
ACHN = system: ACHN
DLD-1 = system: DLD-1
EKVX = system: EKVX
HCC 2998 = system: HCC 2998
IGROV-1 = system: IGROV-1
MOLT-4 = system: MOLT-4
Malme-3M = system: Malme-3M
OVCAR-3 = system: OVCAR-3
RXF 393 = system: RXF 393
SK-MEL-2 = system: SK-MEL-2
SK-OV-3 = system: SK-OV-3
SNB-78 = system: SNB-78
UO-31 = system: UO-31
DU-145 = system: DU-145
Hs-578T = system: Hs-578T
MDA-MB-435 = system: MDA-MB-435
MDA-N = system: MDA-N
NCI/ADR-RES = system: NCI/ADR-RES
DMS-114 = system: DMS-114
DMS-273 = system: DMS-273

Measured: GI50

CC(=O)OC1/C=C(\C)C(OC(C)=O)C/C=C(/C)CCC2C(/C=C/C1=O)C2(C)C (stereo not drawn)
inactive: ACHN > 100 µM | DLD-1 > 100 µM | EKVX > 100 µM | HCC 2998 > 100 µM | IGROV-1 > 100 µM | MOLT-4 > 100 µM | Malme-3M > 100 µM | OVCAR-3 > 100 µM | RXF 393 79.4 µM | SK-MEL-2 > 100 µM | SK-OV-3 > 100 µM | SNB-78 > 100 µM | UO-31 67.5 µM

C=CC[N+]12CN3CN(CN(C3)C1)C2
inactive: ACHN 21.3 µM | DU-145 21.1 µM | EKVX 20.4 µM | HCC 2998 24 µM | Hs-578T > 100 µM | IGROV-1 27.4 µM | MDA-MB-435 19.7 µM | MDA-N 17.3 µM | MOLT-4 33.4 µM | Malme-3M 18.7 µM | NCI/ADR-RES 26.1 µM | OVCAR-3 43.9 µM | RXF 393 18.5 µM | SK-MEL-2 42.1 µM | SK-OV-3 > 100 µM | UO-31 21 µM

CSc1nc2nc(C)c(C)nc2c(=O)[nH]1
inactive: ACHN > 100 µM | DLD-1 > 100 µM | DMS-114 > 100 µM | DMS-273 > 100 µM | EKVX > 100 µM | HCC 2998 > 100 µM | IGROV-1 > 100 µM | MOLT-4 51.2 µM | Malme-3M > 100 µM | OVCAR-3 > 100 µM | RXF 393 > 100 µM | SK-MEL-2 > 100 µM | SK-OV-3 > 100 µM | UO-31 > 100 µM

CCOC(=O)CC[C@H](NC(=O)c1nc[nH]c1/N=N/N(C)C)C(=O)OCC
inactive: ACHN > 100 µM | DLD-1 > 100 µM | DMS-114 > 100 µM | DMS-273 > 100 µM | EKVX > 100 µM | HCC 2998 > 100 µM | IGROV-1 > 100 µM | MOLT-4 > 100 µM | Malme-3M > 100 µM | OVCAR-3 > 100 µM | SK-MEL-2 > 100 µM | SK-OV-3 > 100 µM | UO-31 > 100 µM

COc1ccc2c(OC)c3ccoc3nc2c1O
inactive: ACHN > 100 µM | DLD-1 78.3 µM | DMS-114 > 100 µM | EKVX 53.8 µM | HCC 2998 > 100 µM | IGROV-1 > 100 µM | MOLT-4 42.2 µM | Malme-3M > 100 µM | OVCAR-3 > 100 µM | SK-MEL-2 > 100 µM | SK-OV-3 > 100 µM | SNB-78 > 100 µM | UO-31 63.1 µM

O=C(O)CNS(=O)(=O)c1ccc(NC(=O)c2ccc(F)cc2)cc1
inactive: ACHN > 100 µM | DLD-1 > 100 µM | DMS-273 > 100 µM | EKVX > 100 µM | HCC 2998 > 100 µM | IGROV-1 > 100 µM | MOLT-4 > 100 µM | Malme-3M > 100 µM | OVCAR-3 > 100 µM | RXF 393 83 µM | SK-MEL-2 > 100 µM | SK-OV-3 > 100 µM | UO-31 > 100 µM

C#CCN1C(=O)CN2C(Cl)(Cl)C2(c2ccccc2)c2cc(Cl)ccc21 (stereo not drawn)
inactive: ACHN 85.9 µM | DLD-1 45.3 µM | DMS-114 51.5 µM | DMS-273 41.7 µM | EKVX 50.4 µM | HCC 2998 31.2 µM | MOLT-4 25.1 µM | Malme-3M > 100 µM | OVCAR-3 87.5 µM | RXF 393 > 100 µM | SK-MEL-2 94.4 µM | UO-31 68.1 µM

CC(C)(C)c1ccc(C(O)c2ccc(C(C)(C)C)cc2)cc1
inactive: ACHN 16.6 µM | DLD-1 14.6 µM | DMS-114 12.7 µM | DMS-273 12.6 µM | EKVX 17.7 µM | HCC 2998 21 µM | IGROV-1 16.1 µM | MOLT-4 17.6 µM | Malme-3M 15.8 µM | OVCAR-3 14.5 µM | RXF 393 17.1 µM | SK-MEL-2 15.2 µM | SK-OV-3 14.7 µM | UO-31 16 µM
